In patent publication US6696600B2, “L-DOPA ethyl ester salts and uses thereof” (priority 2001, dated 2004):
Like-named read-outs stand apart in the source and are kept apart here.

What was measured:
[1] = pKa and delta pKa (pKa LDEE − pKa acid); type: physicochemical
Description: Preparation and selection of salts that have different physical properties are detailed in the literature. […]. PKa of LDEE free base is known to be 7.24 [8]. […]. This fact is illustrated in Example 1 below, in which the crystallization of LDEE palmitate was attempted. After dissolution of LDEE base and palmitic acid in absolute alcohol, the solution was cooled, and instead of forming a new salt, pure palmitic acid was crystallized out, and no solid crystalline salt was formed. […]

[2] = Hygroscopicity test: weight gain of solid sample in humidity chamber at RH=80%; type: physicochemical; conditions: for hygroscopicity (in words): RH=80% screening; for weight gain in hygroscopicity test / appearance after exposure in a humidity chamber: RH=80%; for weight gain in hygroscopicity test: T=20±2° C.
Description: There are many methods of quantitative evaluation of hygroscopicity of solid products without measuring the hygroscopic point. The most widely used method is based on measuring the weight gain of a solid sample in a humidity chamber. […] This method was used for screening the hygroscopicity of several LDEE salts. It also provides a comparison of the hygroscopic properties of different solids by comparison of water absorption rates under the same conditions.

[3] = Exposure of hygroscopic salts to atmospheric air
pH of water solution = type: physicochemical
[4] = Stability of dihydrates, impurity profile (HPLC), 8 days at 65° C.; type: physicochemical
Method: The stability of succinate dihydrate and fumarate dihydrate were investigated under the following test conditions: 8 days at 65° C. in glass vial (air) (Table 1).

[5] = background, from references; cited from earlier work
[6] = background statement; cited from earlier work
[7] = cited from earlier work; for pKa (first value): acid or acid salt used for salt preparation
[8] = End, 8 days at 65° C. in glass vial (air)

Row | Molecule | delta pKa pKaLDEE − pKaacid (first value) [1] | Color stability at RH = 80% ([2]; RH = 80%) | Mean water absorption rate at RH = 80% ([2]; RH = 80%) | Material appearance after 24 hrs at RH = 80% ([2]; RH = 80%) | Weight gain during 24 hrs at RH = 80%,% ([2]; RH = 80%) | hygroscopicity (in words) [2] | weight gain in hygroscopicity test ([2]; during 24 hrs) | pH of water solution (pH of water solution) | pKa (first value) [7] | other results
1 | CC(=O)O.CCOC(=O)[C@@H](N)Cc1ccc(O)c(O)c1 [Example 2, LDEE Acetate] | 2.48 | 1.5 h | 0.155 mol/kg/h | Semi-solid melt | 6.7% | hygroscopic | 6.7% |  |  | behaviour in atmospheric air (in words) [3]: deliquescent
2 | CCOC(=O)[C@@H](N)Cc1ccc(O)c(O)c1.CS(=O)(=O)O [Example 3, LDEE Mesylate] | 6.04 | >24 h | 0.405 mol/kg/h | Syrup | 17.5% | hygroscopic | 17.5% |  |  | behaviour in atmospheric air (in words) [3]: deliquescent
3 | CCO.CCOC(=O)[C@@H](N)Cc1ccc(O)c(O)c1.CCOC(=O)[C@@H](N)Cc1ccc(O)c(O)c1.O=C(O)CCC(=O)O [Example 22, LDEE Succinate Ethanolate] | 3.08 | >24 h | 0.067 mol/kg/h | Semi-solid melt | 2.9% | hygroscopic |  | 6 |  | delta pKa pKaLDEE − pKaacid (second value) [1]: 1.63; weight gain in hygroscopicity test ([2]; during 8 hrs): 4.3%
4 | CCOC(=O)[C@@H](N)Cc1ccc(O)c(O)c1.CCOC(=O)[C@@H](N)Cc1ccc(O)c(O)c1.O.O.O=C(O)CCC(=O)O [Example 23, LDEE Succinate Dihydrate] | 3.08 | >72 h | 0.006 mol/kg/h | White flowable powder | 0.27% | non-hygroscopic | 0.27% | 5.8 |  | delta pKa pKaLDEE − pKaacid (second value) [1]: 1.63; water absorption at RH=80% (in words) ([2]; RH = 80%): did not absorb water; appearance after exposure in a humidity chamber ([2]; about 72 hrs): white flowable powder; Assay LDEE (%) [4, 8]: 73.46%; L-DOPA (%) [4, 8]: 0.56%; Unknown RRT = 0.83 (%) [4, 8]: 0.03%; cyc.L-DOPA (%) [4, 8]: 0.03%; Assay LDEE (%) ([4]; Start): 74.1%; L-DOPA (%) ([4]; Start): 0.1%
5 | CCOC(=O)[C@@H](N)Cc1ccc(O)c(O)c1.CCOC(=O)[C@@H](N)Cc1ccc(O)c(O)c1.O.O.O=C(O)/C=C/C(=O)O [Example 25, LDEE Fumarate Dihydrate] | 4.21 | >48 h | 0.0004 mol/kg/h | White flowable powder | 0.04% | non-hygroscopic | 0.04% | 5.5 |  | delta pKa pKaLDEE − pKaacid (second value) [1]: 2.7; water absorption at RH=80% (in words) ([2]; RH = 80%): did not absorb water; appearance after exposure in a humidity chamber ([2]; more than 48 hrs): white flowable powder; Assay LDEE (%) [4, 8]: 75.0%; L-DOPA (%) [4, 8]: 0.27%; LD-LDEE (%) [4, 8]: 0.03%; Unknown RRT = 0.72 (%) [4, 8]: 0.09%; cyc.L-DOPA (%) [4, 8]: L.T. 0.03%; Assay LDEE (%) ([4]; Start): 75.0%; L-DOPA (%) ([4]; Start): 0.11%; LD-LDEE (%) ([4]; Start): L.T. 0.03%
6 | CCO.CCOC(=O)[C@@H](N)Cc1ccc(O)c(O)c1.O=C(O)/C=C\C(=O)O [Example 28, LDEE Maleate Ethanolate] | 5.35 | 3 h | 0.07 mol/kg/h | Yellowish syrup | 3.1% | hygroscopic | 3.1% | 6.4 |  | delta pKa pKaLDEE − pKaacid (second value) [1]: 1.02
7 | CCOC(=O)[C@@H](N)Cc1ccc(O)c(O)c1 [LDEE, L-DOPA ethyl ester] | 0 |  | 0.005 mol/kg/h | White flowable powder | 0.24% | not a hygroscopic material |  | 8.2 |  | hygroscopicity (in words) [5]: non-hygroscopic; Color stability at RH = 80%, hrs ([2]; RH = 80%): ˜50 hrs; aqueous solution pH [6]: 8.2
8 | CCCCCCCCCCCCCC(=O)O [Myristic acid] |  |  |  |  |  |  |  |  | ˜4.8 | 
9 | CCCCCCCC/C=C\CCCCCCCC(=O)O [Oleic acid] |  |  |  |  |  |  |  |  | ˜4.8 | 
10 | CCCCCCCCCCCCCCCC(=O)O [Palmitic acid] |  |  |  |  |  |  |  |  | ˜4.8 | DpKa [1]: 2.4; pKa [7]: 4.8
11 | O=C(O)CCCc1ccccc1 [Phenyl Butyric acid] |  |  |  |  |  |  |  |  | 4.76 | 
12 | CCCCCCCCCCCCCCCCCC(=O)O [Stearic acid] |  |  |  |  |  |  |  |  | ˜4.8 | 
13 | CCOC(=O)[C@@H](N)Cc1ccc(O)c(O)c1.Cl [hydrochloride salt of LDEE] |  |  |  |  |  |  |  |  |  | hygroscopicity (in words) [5]: extremely hygroscopic
14 | LDEE Phenylbutyrate [Example 10] | 2.48 | 1.0 h | 0.023 mol/kg/h | Semi-solid melt | 1.0% | hygroscopic | 1.03% | 5.5-6.0 |  | 
